Assays:
[1] = system: wild-type C. albicans (CAF2); assay: Viability by propidium iodide staining / microscopic examination; format: cell-based
Protocol: (§1) Fungi were grown overnight in YPD rich medium for yeast-form growth and RPMI 1640 for hyphal growth. C. albicans was grown at 37° C.; S. cerevisiae was grown at 30° C. For CF treatment, overnight cultures of C. albicans CAF2 were diluted 1:1,000 into fresh YPD or RPMI 1640 containing dilutions of CF (caspofungin acetate, Candidas formulation, Merck, Whitehouse Station, N.J., United States) and grown overnight. […] For viability, cells were stained with propidium iodide (Sigma, St. Louis, Mo., United States).
Cultures grown at one-quarter and one-eighth of the CF MIC50 (minimal inhibitory concentration to inhibit 50% of the organisms) were stained with anti-β-glucan antibody and Cy3-labeled secondary antibody (FIGS. 2A and D) for visualization by microscopy or with PE-labeled secondary antibody (FIG. 2B) for FACS quantification. […] Concurrently, cells were labeled briefly with propidium iodide to assess viability and visualized by epifluorescence microscopy or quantified by FACS (FIG. 2C). Cells grown overnight in YPD with or without CF were UV-inactivated and then exposed to BMDMs at a yeast:macrophage ratio of 10:1. Supernatants were taken at 6 h and assayed for TNFα (FIG. 2E).

[2] = system: C. albicans CAF2; assay: Growth inhibition of C. albicans by caspofungin (MIC50); format: cell-based; conditions: C. albicans CAF2 grown overnight in dilutions of CF
Protocol: as §1

[3] = system: wild-type C. albicans (CAF2); assay: β-glucan exposure: anti-β-glucan antibody staining, microscopy and FACS; format: cell-based; conditions: for Mean fluorescence intensity (MFI), anti-β-glucan staining: FACS with PE-labeled secondary antibody
Protocol: as §1
Fungi were grown overnight, washed, blocked in PBS+2% BSA, and stained with either the anti-β-glucan antibody (followed by Cy3- or PE-labeled secondary antibody), Alexa Fluor-labeled Dectin-CRD, or Dectin-CRD-anti-Myc. Staining with antibody and Dectin-CRD is described above for the screen. For staining with Dectin-CRD-anti-Myc, Dectin-CRD was preincubated with FITC-labeled anti-Myc (Invitrogen) at a ratio of 3.4 μg of Dectin-CRD+10 μl of anti-Myc, and then added to fungi at 1:100 on ice. Preincubation of Dectin-CRD with anti-Myc creates a probe with the same approximate size as the anti-β-glucan antibody but with the specificity of Dectin-1. Images of stained cells were taken using a Nikon TE2000-S microscope (Nikon, Tokyo, Japan) equipped with Spot RT camera (Diagnostic Instruments, Sterling Heights, Mich., United States) and processed in Photoshop (Adobe Systems, Palo Alto, Calif., United States). Fluorescence was quantified on a FACScalibur cytometer (Becton-Dickinson, Palo Alto, Calif., United States); cells were gated by forward and side scatter based on wild-type cell size and shape, and mean fluorescence intensity of 20,000 labeled cells was calculated using Cellquest software (Becton-Dickinson).
Cultures grown at one-quarter and one-eighth of the CF MIC50 (minimal inhibitory concentration to inhibit 50% of the organisms) were stained with anti-β-glucan antibody and Cy3-labeled secondary antibody (FIGS. 2A and D) for visualization by microscopy or with PE-labeled secondary antibody (FIG. 2B) for FACS quantification. […]

[4] = system: β-glucan receptor; assay: Laminarin preincubation of BMDMs (β-glucan receptor blocking), cytokine ELISA; format: cell-based, BL/6 mice
Protocol: RAW264.7 macrophages (ATCC, Manassas, Va., United States) were cultured in RPMI-10 (RPMI 1640 with 10% heat-inactivated fetal bovine serum and standard concentrations of penicillin-streptomycin; GIBCO, San Diego, Calif., United States). Cells were collected and plated in 24-well plates at 5×10^5 cells/well. Bone marrow derived macro-phages (BMDMs) were differentiated as described (Brown G D, et al., (2003), J Exp Med 197:1119). Briefly, bone marrow from BL/6 mice was cultured in RPMI-10 with 15% L-cell conditioned media and 25 ng/ml recombinant M-CSF (R&D Systems, Minneapolis, Minn., United States). Cells were collected after 6 d and plated in 24-well plates at 5×10^5 cells/well.
Fungi were grown overnight, washed extensively to remove any shed proteins or polysaccharides, and normalized by OD600 or hemacytometer (these two methods produced equivalent results). For S. cerevisiae, live fungi were added to RAW264.7 macrophages at equivalent effector:target (E:T) ratio of 1:5 in 24-well plates and incubated for 6 h, when supernatants were collected for ELISA. […]
In FIG. 1A, C. albicans strains were exposed to RAW264.7 macrophages at a ratio of 2:1 (yeast:macrophage), and supernatants were collected after 6 h. […] After unbound fungi were washed off, macrophages were incubated for 6 h at 37° C., and supernatants were collected for TNFα quantitation.

[5] = system: anti-β-glucan antibody; assay: Blocking of anti-β-glucan antibody binding to gas1Δ mutant; conditions: S. cerevisiae gas1Δ
Protocol: Overnight cultures of strains were grown in YPD and stained with anti-β-glucan primary antibody (Biosupplies Inc., Parkville, Australia) and Cy3-labeled goat-anti-mouse secondary. […] Stained cells were adhered to clear-bottom plates with concanavalin A (Sigma) and scanned with Cellomics VTI fluorescence microscopic imager (Cellomics, Pittsburgh, Pa., United States) using Target Acquisition software (Zeiss, Oberkochen, Germany). Mean average intensity and standard deviation of average intensity measurements were used to identify strains with over two standard deviations greater β-glucan exposure. Initially matA mutant strains were screened, then the independently constructed matα counterparts were screened. […]
Fungi were grown overnight, washed, blocked in PBS+2% BSA, and stained with either the anti-β-glucan antibody (followed by Cy3- or PE-labeled secondary antibody), Alexa Fluor-labeled Dectin-CRD, or Dectin-CRD-anti-Myc. […] Fluorescence was quantified on a FACScalibur cytometer (Becton-Dickinson, Palo Alto, Calif., United States); cells were gated by forward and side scatter based on wild-type cell size and shape, and mean fluorescence intensity of 20,000 labeled cells was calculated using Cellquest software (Becton-Dickinson).

For caspofungin acetate [CF], the viability of fungi ([1]; sub-inhibitory CF concentrations, YPD, propidium iodide) was “without loss of viability”, the “cell death of hyphae” value ([1]; subinhibitory CF, RPMI 1640, microscopic examination) was “did not show increased cell death” and the MIC50 [2] was 2.5 ng/mL. For the same substance, the “Mean fluorescence intensity (MFI), anti-β-glucan staining” value ([3]; one-eighth the CF MIC50, YPD) was 65, the “Mean fluorescence intensity (MFI), anti-β-glucan staining” value ([3]; one-quarter the CF MIC50, YPD) was 161 and the “exposure of β-glucan on hyphae” value ([3]; subinhibitory doses of CF, RPMI 1640 (hyphal growth)) was “dramatic increase”.

laminarin was tested, and the “increased elicitation of pro-inflammatory cytokines by unmasked C. albicans mutants after laminarin preincubation” value ([4]; BMDMs preincubated 20 min on ice, yeast:macrophage 10:1, 6 h) was “great majority of the increased elicitation of pro-inflammatory cytokines could be blocked”, the “stimulation of macrophages by laminarin alone” value ([4]; BMDMs, 100 μg/ml laminarin, no fungi, TNFα) was “does not stimulate” and the “binding of anti-β-glucan antibody to gas1Δ mutant in presence of soluble β-glucan” value [5] was “blocked”.
